This is an account of results in patent US5316771A, “Method of amphiphatic drug loading in liposomes by ammonium ion gradient” (priority 1992, dated 1994).

The text on series [1]:
For this, ammonium carbonate (0.12M) was placed in a beaker. The ultrasound probe was attached to the beaker.

The conditions of series [2]: around 24 hours; cited from earlier work.
The nature of series [3]: Loading of doxorubicin into ammonium sulfate liposomes (NH4+ gradient), Dowex removal of free drug. Type of series: physicochemical. To be noted: biphasic, FIG. 3.
Protocol: Two preparations of liposomes were used, one composed of EPC and cholesterol in molar ratio of 2:1; and second of DPPC and cholesterol in molar ratio 2:1.
The loading was started after removal of external untrapped ammonium sulfate by Sephadex G-50 gel exclusion chromatography.
Dowex binds Desferal and therefore the latter was added to final concentration of 0.5 mM immediately after the removal of the free drug by Dowex.
In order to determine the concentration of a loaded drug inside liposomes, the internal aqueous osmotic volume of the vesicles was measured. This was done by the entrapment of the non-measurable radioactive tracer ^3 H inulin. The comparison of the radioactivity per mole phospholipids before and after removal of the untrapped inulin was used to determine trapped volume using a procedure described in individual examples.
In all cases the gradient was obtained by gel exclusion chromatography of the liposomes after ammonium sulfate loading.
The incubation was shorter for certain types of kinetic experiments. At the end of incubation period, the mixture was passed through a Dowex 50 WX-4 (Serva) column to adsorb the free, unincorporated drug. […] A column containing 1-2 g dry weight of the resin was sufficient to adsorb all unincorporated drug. […] EPC was used for a standard curve.
The mixture was incubated at room temperature for approximately 24 hours. […]
For series [4] the following is noted: Biochemistry, 21:3927-3932; cited from earlier work.
A short description of series [5]: Self-quenching of doxorubicin fluorescence. Type of series: physicochemical. Here is the method:
The measurements were carried on a Perkin-Elmer MPF-44 spectrofluorometer, using excitation/emission wavelengths of 470 nm and 590 nm respectively. […] This was calculated from the difference between the fluorescence of the liposomes prepared according to Examples 1-4, and the fluorescence of the same mixture after diluting it 10 times with isopropanol containing 10% of 0.75% HCI. […] A correction for the difference in fluorescence of doxorubicin in water and the acidified isopropanol solution, deduced from measurements of the fluorescence of "free" drug in the two solutions, was introduced. The small amount of unquenched doxorubicin is probably due to some free-drug that leaked out of the vesicles.

Series [6] can be described thus: Loading of daunorubicin into ammonium sulfate liposomes.
Protocol: After separation of untrapped ammonium sulfate by Sephadex G- 50, 1 ml of the liposome dispersion was mixed with 10 mg of daunorubicin dissolved in 1 ml of 50° C. and at specified time intervals aliquots were taken.
Series [7] can be described thus: Quenching of acridine orange fluorescence on incorporation into liposomes. Type of series: physicochemical. To be noted: liposomes with external ammonium sulfate removed. Here is the method:
In order to further substantiate the existence of the ammonium gradient, the same experiment as described above was repeated with the other compounds such as acridine orange, a cytotoxic drug acridine orange is an amphiphatic weak base (pK=9.25), which has the advantage of being fluorescent. Instead of trapping pyranine inside the ammonium sulfate liposomes, liposomes were added to a solution containing acridine orange. The quenching of the resulting solution was monitored following partitioning into the aqueous phase of the liposome, using the experimental designs described in Example 5 and illustrated in FIG. 2.
Inset graph is an example of one of the experiments. Percentage of fluorescence intensity (F.I.) of acridine orange was monitored continuously and is shown here as (a). At the specified time (b) liposomes were added and the quenching was followed. At steady state, 5 um of nigericin was added, shown here as (c) and the extent of the release of quenching was used to calculate the ammonium sulfate gradient dependent fluorescence intensity. The details of the experiment are described in Example 5.
1 umol of acridine orange was added to a solution containing different proportions of potassium chloride and ammonium sulfate. The solution was designed to get different outside-inside gradients of ammonium sulfate when the liposomes are added. […] The recovery of fluorescence was monitored. […]

For series [8] the following is noted: cited from earlier work.
For series [9] the following is noted: sodium/potassium gradient with valinomycin; cited from earlier work.

Read-outs that look alike come from different tables or passages of the source.

Take `N.N.O=C(O)O` [ammonium carbonate]: the Ultrasound signal entry was “large signal” in [1] (HCl added to pH 4.0) and “No signal was observed” in series [1] (before acidification, 0.12M).

`COc1cccc2c1C(=O)c1c(O)c3c(c(O)c1C2=O)C[C@@](O)(C(=O)CO)C[C@@H]3O[C@H]1C[C@H](N)[C@H](O)[C@H](C)O1` [Doxorubicin]: in series [2], the Leakage from liposomes entry was “substantial leakage”. Further, in series [3], the “Duration of slower phase of loading” value is recorded as “about 24 hours”. Further, the “Concentration above which dimers and aggregates form” value in series [4] is “higher than 1 um”. Moreover, the “Concentration above which fluorescence is quenched” value in series [5] (in saline) is “higher than 10^-6 M”. Moreover, the Quenching was 33% in series [5] (in solution, concentration 1.7.10^-4, corrected for inner filter effect); 16% in series [5] (in solution, concentration 3.4.10^-5, corrected for inner filter effect); 25% in [5] (in solution, concentration 6.9.10^-5, corrected for inner filter effect); approximately 100% in [5] (inside the liposomes).

Turning to `COc1cccc2c1C(=O)c1c(O)c3c(c(O)c1C2=O)C[C@@](O)(C(C)=O)C[C@@H]3O[C@H]1C[C@H](N)[C@H](O)[C@H](C)O1` [Daunorubicin], in series [6], the “Rate of incorporation compared with doxorubicin” value was “higher than that of doxorubicin” and the “Time to completion of incorporation” value was “less than one hour”.

On to `CN(C)c1ccc2cc3ccc(N(C)C)cc3nc2c1` [Acridine orange], for which, in series [7], the “Quenching of acridine orange fluorescence” value was 96.5%. Further, the pK in [8] is recorded as 9.25.

Take `CCCCOc1cc(C(=O)NCCN(CC)CC)c2ccccc2n1` [Dibucaine]: the Loading result in [9] is “up to 52%”.
